Results taken from the NIST ThermoML archive (doi:10.1016/j.jct.2005.03.013).
± gives the expanded uncertainty stated by the source.

How the values were obtained:
[1] = for viscosity: 101.33 kPa, Liquid
[2] = molar heat capacity at constant pressure; details: 101.33 kPa, Liquid, Large sample (1 g) DSC

Row | Compound | viscosity ([1]; 283 K) [mPa·s] | viscosity ([1]; 298 K) [mPa·s] | viscosity ([1]; 303 K) [mPa·s] | viscosity ([1]; 313 K) [mPa·s] | viscosity ([1]; 323 K) [mPa·s] | viscosity ([1]; 333 K) [mPa·s] | viscosity ([1]; 343 K) [mPa·s] | molar heat capacity at constant pressure ([2]; 298 K) [J/K/mol] | molar heat capacity at constant pressure ([2]; 323 K) [J/K/mol] | Glass transition temperature [1] [°C] | viscosity ([1]; 293 K) [mPa·s] | Triple point temperature ([1]; Crystal) [K] | Triple point temperature ([1]; Metastable crystal) [K]
1 | CCCCCCCCCCCCCC[N+](C)(CCOCCOCCOCCOCCOCCO)CCOCCOCCOCCOCCOCCO.COS(=O)(=O)[O-] | 10240 ± 4400 | 2790 ± 910 | 1910 ± 560 | 964 ± 230 | 511 ± 98 | 300 ± 44 | 187 ± 21 | 1066 ± 110 | 1098 ± 110 |  |  |  | 
2 | CCCCCCCCn1cc[n+](C)c1.O=S(=O)([N-]S(=O)(=O)C(F)(F)F)C(F)(F)F |  |  |  |  |  |  |  | 654 ± 66 | 677 ± 68 | -84 ± 4 |  |  | 
3 | CCCCCC[n+]1cc(C)cc(C)c1.O=S(=O)([N-]S(=O)(=O)C(F)(F)F)C(F)(F)F | 251 ± 20 | 104 ± 6 | 81 ± 4 | 52 ± 3 | 35 ± 2 | 24 ± 1 | 18 ± 1 | 620 ± 63 | 665 ± 67 | -76 ± 4 | 136 ± 10 | 283 ± 3 | 
4 | CCCCCC[n+]1cccc(C)c1.O=S(=O)([N-]S(=O)(=O)C(F)(F)F)C(F)(F)F | 197 ± 14 | 85 ± 5 | 67 ± 4 | 44 ± 2 | 30 ± 2 | 22 ± 1 | 16 ± 1 | 624 ± 63 | 644 ± 65 | -82 ± 4 | 110 ± 7 |  | 
5 | CCCCCC[n+]1ccn(C)c1.O=S(=O)([N-]S(=O)(=O)C(F)(F)F)C(F)(F)F | 148 ± 10 | 68 ± 4 | 55 ± 3 | 37 ± 2 | 26 ± 1 | 19 ± 1 | 15 ± 1 | 583 ± 59 | 604 ± 61 | -84 ± 4 | 86 ± 5 |  | 266 ± 3
6 | CCCCCCn1cc[n+](C)c1C.O=S(=O)([N-]S(=O)(=O)C(F)(F)F)C(F)(F)F | 317 ± 27 | 131 ± 9 | 101 ± 6 | 63 ± 3 | 42 ± 2 | 30 ± 2 | 22 ± 1 | 686 ± 69 | 705 ± 71 | -74 ± 4 | 171 ± 13 | 268 ± 3 | 
7 | CCCC[n+]1cccc(C)c1.O=S(=O)([N-]S(=O)(=O)C(F)(F)F)C(F)(F)F | 138 ± 8 | 63 ± 3 | 51 ± 2 | 34 ± 2 | 24 ± 1 | 18 ± 1 | 14 ± 1 | 622 ± 63 | 641 ± 65 | -84 ± 4 | 80 ± 4 |  | 
8 | CCn1cc[n+](C)c1.O=S(=O)([N-]S(=O)(=O)C(F)(F)F)C(F)(F)F | 52 ± 3 | 32 ± 2 | 26 ± 1 | 19 ± 1 | 15 ± 1 | 12 ± 1 | 9 ± 1 |  |  |  | 36 ± 2 |  | 
9 | CCCC[n+]1cc(C)cc(C)c1.[Br-] [1-butyl-3,5-dimethylpyridinium bromide] |  |  |  |  |  |  |  |  |  | -24 ± 4 |  | 368 ± 3 | 
10 | CCCCn1cc[n+](C)c1.COCCOCCOS(=O)(=O)[O-] [1-butyl-3-methylimidazolium 2-(2-methoxyethoxy)ethyl sulfate] | 4070 ± 730 | 1033 ± 140 | 731 ± 82 | 392 ± 36 | 228 ± 17 | 146 ± 9 | 98 ± 5 | 643 ± 65 | 652 ± 66 | -62 ± 4 | 1676 ± 260 |  | 
11 | CC(=O)[O-].CCCCn1cc[n+](C)c1 [1-butyl-3-methylimidazolium acetate] | 1630 ± 240 | 440 ± 44 | 309 ± 27 | 165 ± 12 | 97 ± 6 | 62 ± 3 | 42 ± 2 |  |  |  | 646 ± 80 |  | 
12 | CCCCn1cc[n+](C)c1.O=C([O-])C(F)(F)F [1-butyl-3-methylimidazolium trifluoroacetate] | 155 ± 10 | 70 ± 4 | 53 ± 3 | 37 ± 2 | 26 ± 1 | 19 ± 1 | 15 ± 1 |  |  |  | 89 ± 5 |  | 
13 | CCCC[n+]1cccc(C)c1.[Br-] [1-butyl-3-methylpyridinium bromide] |  |  |  |  |  |  |  |  |  | -36 ± 4 |  |  | 
14 | CCCC[n+]1cccc(C)c1.F[B-](F)(F)F [1-butyl-3-methylpyridinium tetrafluoroborate] | 517 ± 53 | 177 ± 13 | 132 ± 8 | 78 ± 4 | 48 ± 3 | 33 ± 2 | 23 ± 1 | 405 ± 41 | 421 ± 43 | -76 ± 4 | 246 ± 22 |  | 
15 | CCCC[n+]1ccc(N(C)C)cc1.[Br-] [1-butyl-4-(dimethylamino)pyridinium bromide] |  |  |  |  |  |  |  |  |  |  |  | 495 ± 3 | 
16 | CCCC[n+]1ccccc1.[Br-] [1-butylpyridinium bromide] |  |  |  |  |  |  |  |  |  |  |  | 378 ± 3 | 
17 | CCOS(=O)(=O)[O-].CC[n+]1cccc(C)c1 [1-ethyl-3-methylpyridinium ethylsulfate] | 414 ± 39 | 150 ± 10 | 114 ± 7 | 70 ± 4 | 45 ± 2 | 32 ± 2 | 23 ± 1 | 389 ± 39 | 402 ± 41 | -71 ± 3 | 204 ± 17 |  | 
18 | CCOS(=O)(=O)[O-].CC[n+]1ccccc1 [1-ethylpyridinium ethyl sulfate] | 356 ± 32 | 137 ± 9 | 105 ± 6 | 66 ± 4 | 43 ± 2 | 31 ± 2 | 23 ± 1 |  |  |  | 183 ± 14 |  | 
19 | CCCCCCn1cc[n+](C)c1.F[B-](F)(F)F [1-hexyl-3-methylimidazolium tetrafluoroborate] |  |  |  |  |  |  |  | 416 ± 42 | 433 ± 44 | -79 ± 4 |  |  | 
20 | CCCCCC[n+]1cccc(C)c1.[Br-] [1-hexyl-3-methylpyridinium bromide] |  |  |  |  |  |  |  | 343 ± 35 | 358 ± 36 | -37 ± 4 |  |  | 
21 | CCCCCC[n+]1ccc(N2CCC(C)CC2)cc1.[Br-] [1-hexyl-4-(4-methyl-1-piperidinyl)pyridinium bromide] |  |  |  |  |  |  |  |  |  | 33 ± 4 |  |  | 
22 | CCCCCC[n+]1ccccc1.O=S(=O)([N-]S(=O)(=O)C(F)(F)F)C(F)(F)F [1-hexylpyridinium bis(trifluromethylsulfonyl)imide] | 189 ± 14 | 80 ± 5 | 64 ± 3 | 42 ± 2 | 29 ± 2 | 21 ± 1 | 16 ± 1 | 612 ± 62 | 632 ± 64 | -77 ± 4 | 106 ± 7 | 273 ± 3 | 
23 | CCCCCCCCn1cc[n+](C)c1.[Br-] [1-methyl-3-octylimidazolium bromide] |  |  |  |  |  |  |  | 392 ± 40 | 408 ± 41 |  |  |  | 
24 | CCCCCCCC[n+]1ccn(C)c1.F[B-](F)(F)F [1-methyl-3-octylimidazolium tetrafluoroborate] |  |  |  |  |  |  |  | 506 ± 51 | 526 ± 53 | -81 ± 4 |  |  | 
25 | CCCCCC[n+]1ccc(N(C)C)c(C)c1.[Br-] [4-(dimethylamino)-1-hexyl-3-methylpyridinium bromide] |  |  |  |  |  |  |  |  |  | -2 ± 4 |  | 392 ± 3 | 
26 | CCCCCC[n+]1ccc(N(C)C)cc1.[Br-] [4-(dimethylamino)-1-hexylpyridinium bromide] |  |  |  |  |  |  |  |  |  |  |  | 469 ± 3 | 
